# Test results as given in PubChem BioAssay (NCI).
# Several values for one entry are separate records, joined by “and”; a condition that tells them apart may be missing. Identical values can stand only once.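 Compound exposure: 48 hours, 5 concentrations, 96-well plates. Here, GI50 denotes the concentration required for 50% inhibition of growth. TGI marks complete inhibition of growth.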
# Tests used:
# Assay in all cases: inhibition of tumour cell growth, NCI panel, 48 h
# NCI-H23 lung = system: NCI-H23 lung
# MDA-MB-231 breast = system: MDA-MB-231 breast
# M14 melanoma = system: M14 melanoma
# HT29 colon = system: HT29 colon
# NCI/ADR-RES ovarian = system: NCI/ADR-RES ovarian
# HCT-15 colon = system: HCT-15 colon
# NCI-H522 lung = system: NCI-H522 lung
SMILES,GI50 (NCI-H23 lung),TGI (NCI-H23 lung),GI50 (MDA-MB-231 breast),TGI (MDA-MB-231 breast),GI50 (M14 melanoma),TGI (M14 melanoma),GI50 (HT29 colon),TGI (HT29 colon),GI50 (NCI/ADR-RES ovarian) [µM],TGI (NCI/ADR-RES ovarian) [µM],GI50 (HCT-15 colon) [µM],TGI (HCT-15 colon),GI50 (NCI-H522 lung),TGI (NCI-H522 lung)
COc1cc(N)c(Cl)cc1C(=O)N[C@@H]1CCN(CCCOc2ccc(F)cc2)C[C@@H]1OC,> 100 µM,> 100 µM,60.2 µM,> 100 µM,27.4 µM,88.8 µM,20.5 µM,> 100 µM,> 100,> 100,23.6,> 100 µM,61.8 µM,> 100 µM
CC(=O)/C(=N\N=C(N)N)c1ccccc1,–,> 100 µM,–,> 100 µM,–,> 100 µM,–,> 100 µM,–,> 100,–,> 100 µM,–,> 100 µM
C/C(=N\NC(=S)N1CCCC1)c1ccccn1,< 0.01 µM,42.8 µM,< 0.0348 µM,16.2 µM,< 0.01 µM,4.06 µM,< 0.01 µM,17.8 µM,< 0.01,10.6,< 0.01,18.9 µM,0.171 µM,6.09 µM
Cc1cc(C)nc(NC(=O)COc2ccc(Cl)cc2)c1,–,> 100 µM,–,> 100 µM,–,> 100 µM,–,> 100 µM,–,> 100,–,> 100 µM,–,> 100 µM
COC(=O)N[C@@H](C)CNc1nccc(-c2cn(C(C)C)nc2-c2cc(Cl)cc(NS(C)(=O)=O)c2F)n1,> 51.3 µM,> 100 µM,5.72 µM,> 100 µM,< 0.01 µM,–,< 0.01 µM,> 100 µM,> 100,> 100,7.46,> 100 µM,> 55.2 µM,> 100 µM
Cn1cc(-c2csc(-c3ccc(Cl)cc3)n2)c2cccnc21,13.7 µM,31 µM,13.3 µM,33.3 µM,12 µM,24.8 µM,13.2 µM,25.9 µM,15.8,34.4,12.2,29.3 µM,13.6 µM,38.2 µM
CCS(=O)(=O)c1cccc(-c2cc(C(=O)NC3CCN(C)CC3)c(C)c3[nH]c4ncc(C)cc4c23)c1,0.483 µM and 0.322 µM,5.23 µM and 3.75 µM,0.232 µM and 0.196 µM,> 5.15 µM and 4.9 µM,1.15 µM and 0.967 µM,> 8.78 µM and 6.73 µM,0.372 µM and 0.236 µM,> 8.44 µM and 10.3 µM,44.9,> 100,13.6,> 10 µM and 45.8 µM,0.148 µM and 0.164 µM,2.27 µM and 1.68 µM
COc1ccc(N=c2nc3sc4cc(Cl)ccc4n3c(N)c2C#N)cc1,2.49 µM,20.5 µM,3.12 µM,16.2 µM,4.45 µM,> 100 µM,1.31 µM,> 100 µM,2.95,9.08,5.59,> 31.1 µM,20.6 µM,> 100 µM
C[C@]12CCC3c4ccc(O)cc4CCC3C1CC[C@@H]2NC(=O)/C=C/c1ccc(O)c(O)c1 (stereo not given in full),11.8 µM,28.5 µM,14.5 µM,33.6 µM,10.6 µM,22.9 µM,3.97 µM,15.4 µM,16.2,41.7,4.89,19 µM,6.25 µM,27.4 µM
Cc1nc(C(=O)OCc2ccccc2)cc(OCc2ccccc2)c1C,15.3 µM,36.8 µM,14.6 µM,34.9 µM,19.8 µM,40.3 µM,13.1 µM,29.3 µM,14.1,37.4,18.6,> 60.6 µM,15.5 µM,37 µM
CC(=O)c1nc(-c2ccc(C[C@@H](CNC(=O)CN(C)C)NC(=O)c3ccc(OC(C)C)c(Cl)c3)cc2)cn1C,0.0647 µM,21.1 µM,0.0535 µM,8.75 µM,0.0317 µM,2.54 µM,0.024 µM,12.5 µM,0.511,18.3,0.0899,19.3 µM,< 0.0181 µM,13.8 µM
Fc1ccc(-c2ncn(C3CCNCC3)c2-c2ccnc(Oc3ccc(Cl)cc3)n2)cc1,–,–,4.46 µM,8.6 µM,4.65 µM,9.09 µM,3.25 µM,6.68 µM,6.03,> 22.7,4.24,9.46 µM,4.49 µM,9.34 µM
O=C(OCC1=CC(=O)c2ccccc2C1=O)c1ccccc1,6.28 µM,24.8 µM,14.3 µM,28.5 µM,1.72 µM,3.59 µM,8.13 µM,37.7 µM,21.7,60.1,10.6,29.5 µM,15 µM,28.6 µM
O=C(NC1=C(Cl)C(=O)c2ccccc2C1=O)C(=O)c1c(O)c2ccccc2oc1=O,–,4.38 µM,–,22.5 µM,–,4.4 µM,–,12.8 µM,–,20,–,13.7 µM,–,16.1 µM
CCCCS(=O)(=O)c1cc(Nc2ccc(O)c3c2C(=O)c2ccccc2C3=O)ccc1C,–,–,1.68 µM,> 100 µM,2.87 µM,> 100 µM,> 100 µM,> 100 µM,> 100,> 100,6.03,> 100 µM,> 100 µM,> 100 µM
COc1ccc(/C=C(\C#N)c2cc(OC)c(OC)c(OC)c2)cc1,0.0242 µM,> 100 µM,0.0483 µM,> 100 µM,0.0269 µM,> 100 µM,0.0251 µM,17.8 µM,–,–,0.0359,> 100 µM,< 0.01 µM,0.0268 µM
O=C(O)C(Cc1ccccc1)N1C(=O)/C(=C/C(Cl)=C/c2ccc([N+](=O)[O-])cc2)SC1=S (stereo not given),2.13 µM,4.86 µM,3.35 µM,> 100 µM,–,–,2.84 µM,8.47 µM,3.39,> 100,1.92,4.58 µM,1.72 µM,4.47 µM
COc1ccc(C(=O)Cn2c(C(=O)c3ccc(Cl)cc3)nc(-c3ccccc3)c2-c2ccccc2)cc1,> 100 µM,> 100 µM,44 µM,> 100 µM,> 100 µM,> 100 µM,> 100 µM,> 100 µM,> 100,> 100,> 100,> 100 µM,> 100 µM,> 100 µM
CN(Cc1cnc2nc(N)nc(N)c2n1)c1c(Cl)cc(C(=O)NC(CCC(=O)O)C(=O)O)cc1Cl (stereo not given),0.0277 µM,> 100 µM,–,> 100 µM,< 0.01 µM,> 100 µM,< 0.01 µM,> 100 µM,< 0.01,> 100,< 0.01,> 100 µM,0.0457 µM,> 100 µM
COc1cc(C=NCC(=O)CSC(c2ccccc2)c2ccccc2)ccc1O,8 µM,20.5 µM,12.8 µM,26.7 µM,13.2 µM,25.9 µM,15.3 µM,28.6 µM,7.78,29.2,13.8,30.8 µM,–,–
COc1c(OC2OC(C)C(O)C(O)C2O)c(OC)c2oc(-c3ccc(O)cc3)cc(=O)c2c1O (stereo not given),20.6 µM,57.1 µM,16.5 µM,71.8 µM,–,–,30 µM,> 100 µM,87.2,> 100,40.3,> 100 µM,24.2 µM,64.5 µM
CSCc1ncc(-c2ccc(C(F)(F)F)cc2)c(NC2CCCCCC2)n1,> 10 µM,> 10 µM,> 10 µM,> 10 µM,> 10 µM,> 10 µM,> 10 µM,> 10 µM,> 10,> 10,> 10,> 10 µM,–,–
N#C/C(=C/C=C/c1cccc(Cl)c1)S(=O)c1ccccc1 (stereo not given),0.42 µM,1.74 µM,0.384 µM,1.4 µM,1.1 µM,2.89 µM,–,–,0.278,0.859,0.197,0.56 µM,0.251 µM,0.804 µM
CCOC(=O)/C=C/c1ccc([N+](=O)[O-])o1,4.12 µM,18.4 µM,3.51 µM,11.6 µM,2.71 µM,8.74 µM,3.71 µM,15.1 µM,–,–,2.03,7.53 µM,1.34 µM,3.24 µM
C=C(CN1CCN(c2ccccn2)CC1)c1ccc(C(=O)Nc2ccccc2N)cc1,0.939 µM,2.44 µM,2.17 µM,> 50 µM,8.48 µM,> 50 µM,–,–,1.31,5.05,1.91,> 50 µM,1.56 µM,9.36 µM
COc1cc(C2CC(c3ccc(Cl)cc3)=NN2C(C)=O)ccc1Oc1ccnc2cc(Cl)ccc12 (stereo not given),–,–,–,–,> 100 µM,> 100 µM,–,–,–,–,> 100,> 100 µM,–,–
CN1C2C=CC(=O)C1C(C#N)C2 (stereo not given),–,87.9 µM and > 100 µM,> 100 µM,> 100 µM,29.5 µM and 69.1 µM,89.7 µM and > 100 µM,31.8 µM and 90.5 µM,> 100 µM,–,> 100,–,73.5 µM and > 100 µM,–,–
